Measured values as given in US11413278B2, “Compounds and methods for promoting stress resistance” (priority 2015, dated 2022).
Read-outs that look alike come from different tables or passages of the source.

Experiments:
[1] = system: WI-38 cells; conditions: read-out: Est. ED50; dose response 0.6-20 μM; H2O2-resistance
[2] = system: phosphorylated γH2A.X and TP53BP1; assay: DNA damage marker analysis (immuno-staining)
Description: WI-38 cells were seeded on 96-well plates and cultured for 24 hrs and then incubated with small molecules for another 24 hrs. As the positive control to damage DNA, H2O2 was supplemented at 700 μM final concentration for the last 3 hrs. Cells were washed with phosphate-buffered saline (PBS), fixed with 4% paraformaldehyde and then blocked with 5% normal goat serum (Cell Signaling), plus 0.3% Triton X-100, for 1 hr. Primary antibody cocktail (rabbit anti-phospho-histone γH2A.X (Ser-139), 1:100; anti-phospho-TP53BP1 (Ser-1778), 1:100), prepared in 1% BSA and 0.3% Triton X-100/PBS, was then introduced and incubated overnight at 4 C. Next day, samples were washed with PBS and further incubated with fluorophore-conjugated secondary antibody (1:1,000) for 1 hr in the dark. Samples were then washed and incubated with DAPI dye (Life Technologies) (4 μg/ml final concentration) for the last 10 minutes. Images were collected on an INCell Analyzer 2000 (GE) and analyzed with the Developer software.
WI-38 cells were seeded (˜8,000 cells per well) on 96-well plates and cultured for 24 hrs and then incubated with small molecules for another 24 hrs. Doxorubicin (300 nM, 24 hrs) and H2O2 (700 μM, 3 hrs) were also introduced as the positive controls to damage DNA. Cells were washed with phosphate-buffered saline (PBS), fixed with 4% paraformaldehyde for 30 min and then blocked with 5% normal goat serum (Cell Signaling) and 0.3% Triton X-100 for 1 hr. Primary antibody cocktail (Cell Signaling, rabbit anti-phospho-histone γH2A.X (Ser-139), 1:100; anti-phospho-TP53BP1 (Ser-1778), 1:100) was prepared in PBS with 1% BSA and 0.3% Triton X-100 and incubated overnight at 4° C. Next day, samples were washed with PBS and further incubated with fluorophore-conjugated secondary antibody (1:1,000) for 1 hr in dark. Samples were then washed and incubated with DAPI dye (Life Technologies) (4 μg/ml final concentration) for 30 minutes. Images were collected on the INCell Analyzer 2000 (10× objective) and analyzed with the Developer Toolbox.

[3] = system: NRF2; assay: qPCR analysis of NRF2-regulated genes; assay type: cell-based, human; conditions: Homo sapiens, 24 h, Assay 12(o), at 10 uM, qPCR
Description: (§1) For qPCR analysis, WI-38 cells were treated with small molecules (at 10 μM) (biological quadruplicates) for 24 hrs and processed for RNA isolation and reverse transcription (RT) with the Cells-to-Ct Kit (Life Technologies), following manufacturer's instructions. RT products were diluted with H2O and used for qPCR analysis on an ABI 7300 system (Life Technologies) (technical triplicates). Relative expression levels of target genes were normalized to the genes B2M, PPIA and GAPDH. To knock down the expression of FOXO3 or NRF2, WI-38 cells were transfected, using the RNAiMAX reagents (Life Technologies), with siRNA oligos (at 10 nM final concentration, 10 ml culture medium) for FOXO3 (Life Technologies) or NRF2 (Integrated DNA Technologies) on 10-cm petri dishes for 36 hrs, and then detached and aliquoted onto 96-well (for qPCR analysis) or 384-well plates (for H2O2-stress treatment). ˜24 hrs later, small molecules were introduced and incubated with cells for 24 hrs. Cells were then either processed with the Cells-to-Ct Kit to prepare RT products for qPCR analysis or subjected to H2O2 (700 μM) for 3 hrs and assayed for viability. The knockdown efficiency of FOXO3 or NRF2 was checked at 36 hrs post-transfection and at the end as well.
(§2) For qPCR analysis, WI-38 cells were treated with small molecules (at 10 μM) (biological quadruplicate) for 24 hrs and processed for RNA isolation and reverse transcription (RT) with the Cells-to-Ct Kit (Life Technologies), following manufacturer's instructions. RT products were diluted with H2O and used for qPCR analysis on a LightCycler 480 system (Roche) (technical triplicates). Relative expression levels of target genes were normalized to the genes B2M, PPIA and GAPDH. To knock down the expression of FOXO3 or NRF2, WI-38 cells were transfected with siRNA oligos (at 10 nM final concentration) for FOXO3 (Life Technologies) or NRF2 on 10-cm petri dish for 36 hrs, and then detached and aliquoted onto 96-well plates. ˜24 hrs later, small molecules were introduced and incubated with cells for 24 hrs. Cells were then processed with the Cells-to-Ct Kit to prepare RT products for qPCR analysis. The knockdown efficiency of FOXO3 or NRF2 was checked at 36 hrs post-transfection and at the end as well.
NRF2/SKN-1, the oxidative stress and xenobiotic phase 2 detoxification protein, can extend animal lifespan (Sykiotis and Bohmann, 2008; Tullet et al., 2008). Applicants analyzed these small molecules for their ability to increase the expression of NRF2-regulated genes, including HMOX1 (heme oxygenase (decycling) 1; anti-oxidant), NQO1 (NAD(P)H dehydrogenase, quinone 1; phase 2 detoxification enzyme), GCLC (glutamate-cysteine ligase, catalytic) and GSTM1 (glutathionine S transferase) (Hur and Gray, 2011; Suzuki et al., 2013).

[4] = system: FOXO3; assay: qPCR analysis of FOXO3-regulated genes; assay type: cell-based, human; conditions: Homo sapiens, 24 h, Assay 10(m), at 10 uM, qPCR
Description: as §1, §2
Many perturbations that increase lifespan and stress resistance in animals do so in a FOXO-dependent fashion (Kenyon, 2010c). Humans have several FOXO genes, but FOXO3, which promotes stress resistance in mammalian cell culture (Kops et al., 2002; Nemoto and Finkel, 2002; Tran et al., 2003), is the one that has been linked to exceptional longevity in humans (Anselmi et al., 2009; Flachsbart et al., 2009; Li et al., 2009; Pawlikowska et al., 2009; Soerensen et al., 2010; Willcox et al., 2008). FOXO1, in contrast, appears to be responsible for some symptoms of diabetes in mouse models (Cheng and White, 2011). For this reason, applicants have focused on analyzing potential ability of our small molecules to activate FOXO3. […] Another 4 molecules (Gr-7A, Gr-7C, O12 and O23) could induce robust expression (greater than 1.5-fold) of at least 2 FOXO3 target genes.

[5] = system: human dermal fibroblast (HDF) primary cells; assay: H2O2-resistance in primary human dermal fibroblasts; assay type: cell-based; conditions: YES/NO
[6] = system: C. elegans; assay: C. elegans lifespan assays (liquid and plate); assay type: in vivo, Caenorhabditis elegans; conditions: Caenorhabditis elegans, at 66 uM
[7] = system: NRF2; assay: in vitro; assay type: cell-based, human; conditions: 10 uM; YES/NO
Description: as §1, §2
Of these, O15 and O20 consistently (in 3 of 3 experiments) required NRF2 to promote H2O2-resistance, and their resistance capacities were reduced by ˜90% on average upon NRF2 knockdown under conditions tested.

[8] = system: WI-38 cells; assay: Long-term effects on cell viability (5 days, ATP; morphology, PI imaging); assay type: cell-based; conditions: 10 μM; for Luminescence signal for ATP measurement, day-1 Average / Luminescence signal for ATP measurement, day-2 Average / Luminescence signal for ATP measurement, day-3 Average / Luminescence signal for ATP measurement, day-4 Average / Luminescence signal for ATP measurement, day-5 Average: n = 6; for ATP luminescence by day-5 normalized: DMSO ctrl = 100.0%;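 as to Luminescence signal for ATP measurement, day-2 Average: compounds at 10 µM with ATP read daily over 5 days of treatment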;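 as to Luminescence signal for ATP measurement, day-3 Average: compounds at 10 µM with ATP read daily over 5 days of treatment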;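 as to Luminescence signal for ATP measurement, day-4 Average: compounds at 10 µM with ATP read daily over 5 days of treatment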;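 as to Luminescence signal for ATP measurement, day-5 Average: compounds at 10 µM with ATP read daily over 5 days of treatment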
Description: In addition, cell death was scored by PI-imaging on day 2 and day 5 of treatment.
Applicants introduced molecules (at 10 uM final concentration) to WI-38 fibroblasts and then assayed cell viability (through ATP measurement) everyday, during a course of 5 days of continuous treatment. […] Applicants also examined the morphology and scored cell death (propidium iodide staining) for cells treated with the above molecules. Of these 14 molecules, some appeared to cause cell toxicity. […] Despite the observed long-term toxicity, these molecules are still interesting as they may act as anti-tumor agents in vivo, should they have more pronounced cytotoxicity on highly proliferative tumor cells. When cells were incubated with these molecules for ˜24 hrs and then subject to hydrogen peroxide for 3 hrs, these molecules are all protective. […] Some of these small molecules may be toxic by themselves under certain conditions, but by inducing protective mechanisms, they may trigger “hormesis” and therefore protect cells from oxidative stress.

[9] = read-out: Induction of NRF2-regulated genes: NQO1 normalized fold-change
[10] = read-out: Induction of FOXO3-regulated genes: GADD45A normalized fold-change
[11] = Batch 1, day-0 luminescence = 320956 ± 24708
[12] = Batch 2, day-0 luminescence = 229312 ± 17487

Cc1ccc(C(=O)Nc2ccc3ccc4cccnc4c3n2)cc1 [Gr-3D]
EC50 [1]: 4.96 µM

OO [H2O2, hydrogen peroxide, reference compound]
TP53BP1-positive cells [2]: ~45.8±5.1%
γH2A.X-positive cells [2]: ~50.9±4.2%

COCCCN1Cc2cccc(C(N)=O)c2C1=O [O2]
EC50 [1]: 20 µM

O=C(CC1(O)C(=O)Nc2ccc(Br)cc21)c1ccc(Cl)cc1 (stereo not shown) [O19]
fold induction at 10 µM [3, 9]: 1.91
fold induction at 10 µM [4, 10]: 0.84
EC50 [1]: 20 µM
Assay 6: H2O2-resistant, at 10 uM, human dermal fibroblast (HDF) primary cells [5]: YES

O=C(O)c1cc(Cl)c(Cl)cc1C(=O)Nc1ccccc1 [O25]
EC50 [1]: 8.5 µM
Assay 6: H2O2-resistant, at 10 uM, human dermal fibroblast (HDF) primary cells [5]: YES

Oc1cc(-c2ccccc2)nc2c(-c3ccc(Cl)cc3)c(Cc3ccccc3)nn12 [O26]
fold induction at 10 µM ([3]; read-out: Induction of NRF2-regulated genes: GSTM1 normalized fold-change): 0.85
fold induction at 10 µM [3, 9]: 0.44
ILS at 66 µM ([6]; Assay 2(z), 1.0 × 10^9 bacteria/ml, wild type + FuDR (2012 July), read-out: Lifespan assay in liquid): 23.9%
ILS at 66 µM ([6]; Assay 3(aa), 2.5 × 10^9 bacteria/ml, wild type + FuDR, read-out: Lifespan assay in liquid): 4.6%
ILS at 66 µM ([6]; Assay 4(ab), 2.0 × 10^10 bacteria/ml, CF512 worms, no FuDR, read-out: Lifespan assay on plates): 27.1%
ILS at 66 µM ([6]; Assay 5(ac), 1.0 × 10^11 bacteria/ml, CF512 worms, no FuDR, read-out: Lifespan assay on plates): 8.3%
Assay 17: NRF2-dependency for H2O2-resistance [7]: YES
fold induction at 10 µM [4, 10]: 3.36
fold induction at 10 µM ([4]; read-out: Induction of FOXO3-regulated genes: SESN1 normalized fold-change): 2.21
fold induction at 10 µM ([4]; read-out: Induction of FOXO3-regulated genes: TXNIP normalized fold-change): 1.16
EC50 [1]: 20 µM

Cc1cc(C)n(-c2nc(O)cc(-c3ccccc3)n2)n1 [O28]
EC50 [1]: 5.4 µM

CCCCCCc1cc(C=O)c(O)cc1O [O29]
EC50 [1]: 15.3 µM

CC(C)CCOc1ccc(C(=O)C(CN2CCOCC2)c2ccccc2)cc1 (stereo not shown) [O30]
EC50 [1]: 4.2 µM

Nc1c(Cl)ncnc1NCCCn1ccnc1 [O31]
EC50 [1]: 10.6 µM

CO[C@H]1C[C@@H]2CC[C@@H](C)[C@@](O)(O2)C(=O)C(=O)N2CCCC[C@H]2C(=O)O[C@H]([C@H](C)C[C@@H]2CC[C@@H](O)[C@H](OC)C2)CC(=O)[C@H](C)/C=C(\C)[C@@H](O)[C@@H](OC)C(=O)[C@H](C)C[C@H](C)/C=C/C=C/C=C/1C [Rapa]
Luminescence signal for ATP measurement, day-1 Average [8, 11]: 454546
Luminescence signal for ATP measurement, day-2 Average [8, 11]: 519403
Luminescence signal for ATP measurement, day-3 Average [8, 11]: 545026
Luminescence signal for ATP measurement, day-4 Average [8, 11]: 552160
ATP luminescence by day-5 normalized ([8]; Batch 1): 53.3%
Luminescence signal for ATP measurement, day-5 Average [8, 11]: 547771
Luminescence signal for ATP measurement, day-1 Average [8, 12]: 239521
Luminescence signal for ATP measurement, day-2 Average [8, 12]: 221640
Luminescence signal for ATP measurement, day-3 Average [8, 12]: 244073
Luminescence signal for ATP measurement, day-4 Average [8, 12]: 276911
ATP luminescence by day-5 normalized ([8]; Batch 2): 47.3%
Luminescence signal for ATP measurement, day-5 Average [8, 12]: 262898
